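Protocol summary: plate cells (96-well), add compound at 5 concentrations, incubate 48 h, interpolate endpoints linearly. Here, GI50 denotes the concentration required for 50% inhibition of growth. The concentration for full growth arrest is given as TGI.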
Columns and labels:
Assay in all cases: NCI anticancer screen, dose series, 48 h
[1] = test system: TK-10 renal
[2] = test system: MDA-MB-231 breast
[3] = test system: SNB-75 CNS
[4] = test system: CAKI-1 renal
[5] = test system: MCF7 breast
[6] = test system: SW-620 colon
[7] = test system: UACC-62 melanoma
[8] = test system: OVCAR-3 ovarian
[9] = test system: OVCAR-4 ovarian
[10] = test system: K-562 leukemia

SMILES | TGI [1] [µM] | TGI [2] [µM] | TGI [3] [µM] | TGI [4] [µM] | TGI [5] [µM] | TGI [6] [µM] | TGI [7] [µM] | TGI [8] [µM] | TGI [9] [µM] | TGI [10] [µM] | GI50 [1] [µM] | GI50 [2] [µM] | GI50 [9] [µM] | GI50 [3] [µM] | GI50 [4] [µM] | GI50 [5] [µM] | GI50 [6] [µM] | GI50 [7] [µM] | GI50 [10] [µM] | GI50 [8] [µM]
CN(C)C(=S)SCc1ccccc1 | > 100 | > 100 | 70.3 | > 100 | > 100 | > 100 | > 100 | > 100 | – | – | – | – | – | – | – | – | – | – | – | –
C/C(=C\c1ccc2c(c1)OCO2)[N+](=O)[O-] | 8.63 | > 100 | 88.2 | 4.41 | – | > 100 | 4.83 | – | 14 | > 100 | – | – | – | – | – | – | – | – | – | –
C(=N/Nc1ccccn1)/c1cccnc1 | > 100 | > 100 | > 100 | > 100 | > 100 | > 100 | > 100 | > 100 | > 100 | > 100 | – | – | – | – | – | – | – | – | – | –
CCOC(=O)c1cc(Cl)ccc1OC(N)=O | – | – | > 100 | > 100 | > 100 | > 100 | > 100 | > 100 | > 100 | > 100 | – | – | – | – | – | – | – | – | – | –
Nc1nc(Cl)nc2c1ncn2C1CCC(CO)O1 (configuration not stated) | > 100 | – | > 100 | > 100 | > 100 | > 100 | > 100 | > 100 | > 100 | – | – | – | – | – | – | – | – | – | – | –
Clc1ccc(CSCc2ccc(Cl)cc2Cl)c(Cl)c1 | > 100 | > 100 | 89 | > 100 | 86.9 | > 100 | > 100 | > 100 | > 100 | > 100 | – | – | – | – | – | – | – | – | – | –
N#CC(C#N)=Cc1ccc(-c2ccc(-c3nc4ccccc4s3)cc2)s1 | 47.4 | 36.9 | > 100 | 47.4 | > 100 | > 100 | 30.7 | 34.8 | > 100 | 57.4 | 22.7 | 16.1 | 51.9 | 37.5 | 20.9 | 26.2 | 19.8 | 15.1 | 17.8 | 14.9
CC(C)(C)C1=NN=C2c3ccccc3C(=O)C21 (configuration not stated) | > 100 | > 100 | > 100 | > 100 | > 100 | > 100 | > 100 | > 100 | > 100 | > 100 | – | – | – | – | – | – | – | – | – | –

— PubChem BioAssay (NCI)
